In patent EP2873670A1, “Bis azainositol zirconium complexes for X-ray imaging” (Bayer Pharma Aktiengesellschaft, priority 2013, dated 2015):

Assay: Stability of bis azainositol Zirconium complexes under heat sterilization (HPLC with ICP-MS detection, ICP-OES)
Format: physicochemical
Conditions: absolute stability; aqueous, buffered solution at pH 7.4, 5 mmol/L of the compound, heated to 121 °C for 45 minutes in a steam autoclave
Experimental: Stability of bis azainositol Zirconium complexes
The stability of bis azainositol Zirconium complexes was determined in aqueous, buffered solution at pH 7.4. The solution containing 5 mmol/L of the compound in a tightly sealed vessel was heated to 121 °C for 45 minutes in a steam autoclave. The Zirconium concentration of the solution was determined by ICP-OES before and after heat treatment. The integrity of the compound was determined by HPLC analysis before and after heat treatment. Absolute stability was calculated as the ratio of the peak area of the compound after and before the heat treatment multiplied with the ratio of the metal concentration of the solution after and before heat treatment.
• Column 1: Reversed phase C18. • Column 2: ZIC®-HILIC. • Solvent A1: 0,5 mM tetrabutylammonium phosphate pH 6 • Solvent A2: 0.1 % formic acid in water • Solvent B1: methanol • Solvent B2: acetonitrile
The use of columns, solvents, flow rate and gradients is detailed in the table below. Detector: element specific detection by ICP-MS, running at m/z 90, the most abundant isotope of Zirconium.

Stability | Substance
100% | Bis[µ3-3,3',3"-({[1R-(1α,2α,3α,4α,5α,6α)]-2,4,6-trihydroxylato-1κ^2O^2O^6, 2κ^2O^2O^4,3κ^2O^4O^6-cyclohexane-1,3,5-triyl}tris{methylimino-1κN^1,2κN^3,3κN^5})tripropanoato-1κO,2κO',3κO"]trizirconium(IV) [Example 3]
100% | Hydroxido-3κO-[µ3-3,3',3"-({[1R-(1α,2α,3α,4α,5α,6α)]-2,4,6-trihydroxylato-1κ^2O^2O^6, 2κO^2O^4,3κ^2O^4O^6-cyclohexane-1,3,5-triyl]tris{methylimino-1κN^1,2κN^3,3κN^5}) tri-propanoato-1κO,2κO',3κO"][µ3-3,3'-({[1R-(1α,2α,3α,4α,5α,6α)]-2,4,6-trihydroxylato-1κ^2O^2O^6,2κ^2O^2O^4,3κ^2O^4O^6-5-[methylamino-3κN^5]cyclohexane-1,3-diyl}bis{methyl-imino-1κN^1,2κN^3})dipropanonato-1κO,2κO']trizirconium(IV) [Example 4]
